The structures appear in SMILES notation.

For the experiment, the system named is Caenorhabditis elegans. Kind of experiment: Nematocidal activity against Caenorhabditis elegans assessed as revised death rate after 24 to 48 hrs. It is filed as functional. The arrangement: concentration or dose not given beside the values.
Take `CCCCCCCC(=O)N1N=C2C(C)=CC=CC2(C)CN1C` (stereo unspecified): the Activity is reported as 10.3%.

On to `CCCCCCCCC(=O)N1N=C2C(C)=CC=CC2(C)CN1C` (stereo unspecified), for which the Activity is 97%.

In the case of `CCCCCCCCCCCC(=O)N1N=C2C(C)=CC=CC2(C)CN1C` (stereo unspecified), the Activity was determined as 17.2%.

As to `CC1=CC=CC2(C)CN(C)N(C(=O)N(C)c3ccccc3)N=C12` (stereo unspecified), the Activity is given as 74.2%.

On to `CC1=CC=CC2(C)CN(C)N(C(=S)Nc3ccccc3)N=C12` (stereo unspecified), for which the Activity was found to be 20.9%.

`CC1=CC=CC2(C)CN(C)N(C(=S)N(C)c3ccccc3)N=C12` (stereo unspecified): the Activity was 100%.

As for `CCCCCCCCCC(=O)N1N=C2C(C)=CC=CC2(C)CN1C` (stereo unspecified), the Activity was determined as 64.6%.

With `CC(=O)N1N=C2C(C)=CC=CC2(C)CN1C` (stereo unspecified), the Activity is given as 100%.

`CC1=CC=CC2(C)CN(C)N(C(=O)Nc3ccccc3)N=C12` (stereo unspecified): the Activity is reported as 43.8%.

For `CN=C=S` [METHYLISOTHIOCYANATE], the Activity is 100%.

As to `CCCCCCCCCCC(=O)N1N=C2C(C)=CC=CC2(C)CN1C` (stereo unspecified), the Activity stood at 20.3%.

(Values after ChEMBL document CHEMBL1146309, “Tetrahydrobenzotriazines as a new class of nematocide” (2007).)
